Measurements published in US4743541A, “Luminescent substrate preparation and its use in specific binding assays” (priority 1985, dated 1988).
Where two headings read alike, the source gives them in different places.

Molecular target: T1, horseradish peroxidase (HRP) (Armoracia rusticana, UniProt P00433)
T1 sequence (P00433 31-353): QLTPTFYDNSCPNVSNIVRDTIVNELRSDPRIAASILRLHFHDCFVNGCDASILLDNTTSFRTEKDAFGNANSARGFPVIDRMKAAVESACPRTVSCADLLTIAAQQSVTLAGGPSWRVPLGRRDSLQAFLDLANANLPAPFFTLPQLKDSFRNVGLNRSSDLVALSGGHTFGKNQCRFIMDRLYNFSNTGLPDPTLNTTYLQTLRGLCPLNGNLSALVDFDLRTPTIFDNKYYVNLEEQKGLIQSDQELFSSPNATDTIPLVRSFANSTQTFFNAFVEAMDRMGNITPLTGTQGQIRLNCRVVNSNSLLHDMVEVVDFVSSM
Experimental: A standardized test procedure for measuring luminol light output has been established. To 0.5 ml of 50 mM borate buffer, pH 9.4, are added 0.5 ml of 40 mM luminol in 45 mM NaOH, pH 11.0; 0.5 ml of 4 mM hydrogen peroxide in 0.01M phosphate buffered saline (PBS), pH 7.0; 0.4 ml of deionized water; and 0.1 ml of 200 mU/ml horseradish peroxidase (HRP) to yield a final 2.0 ml volume containing; 10 mM luminol; 1 mM H2 O2; 12.5 mM borate buffer, pH 9.4; and 20 mU HRP in an aqueous solution having a final pH of 9.4. The enzyme HRP is added last, the solution mixed and relative intensity readings taken on an Ames Fluorocolorimeter (Miles Labs, Inc., Elkhart, IN) at various time points from 1 minute to 2 hours.
The chemical synthesis of luminol and other luminescent substrates use chemicals which can inhibit the catalysts used in luminescent reactions. Two of these inhibitory chemicals known to be used in luminol synthesis were added back to a luminescent reaction using the luminol prepared in Example 1 above.

| Compound | Amount in the luminol that can inhibit the production of light | Effect on luminescence yield in the reaction (in words) | Effect on luminescence yield in the reaction | % Reaction (hrp luminol luminescence, pH 9.4, 30 min) |
| --- | --- | --- | --- | --- |
| ammonium sulfide | greater than 100 ppm | drastically inhibits | – | – |
| NN.O=S(=O)(O)O [Hydrazine Sulfate, hydrazine sulfate] | greater than 100 ppm | drastically inhibits | – | – |
| N.N.O=S(=O)(O)O [Ammonium Sulfate, ammonium sulfate] | – | – | had no effect | 100% |
